According to patent US11306306B1, “Selective degradation of proteins” (SyntheX, Inc., priority 2019, dated 2022):

Key:
[1] = system: TIR1 bridged to plant protein (AXR) fused to a TetR DBD and an AD; assay: Positive readout high throughput screen for bridging agents, death agent, 96 well plate growth (OD600), E3 ligase TIR1; type: cell-based, Saccharomyces cerevisiae; conditions: 10 uM, quadruplicate wells, 30° C., final timepoint 48 hrs
Method: In another example, cells expressing a heterologous E3 ligase, in this case TIR1, were assayed for survival to discover bridging agents that can bridge TIR1 to the bait and lead to degradation, thereby enabling cell growth (schematic shown in FIG. 10A). The target was a plant protein (AXR) that is ubiquitinated and degraded in response to Indol Acetic Acid fused to a TetR DBD and an AD. Cells containing the E3 ligases and the death agent were mated to cells containing the target. The mated cells were then aliquoted into a 96 well plate at a starting OD600=0.05. In this example, various compounds were used in quadruplicate wells at a concentration of 10 uM, and plated cells starting at OD600=0.05 (with the border wells on each side kept as negative controls). Plates were incubated at 30° C. with shaking and continuously monitored for growth using OD600 in a Cytation 1 instrument.

[2] = system: COI1b bridged to plant protein (AXR) fused to a TetR DBD and an AD; assay: Positive readout screen for bridging agents, death agent, 96 well plate growth (OD600), E3 ligase COI1b; type: cell-based, S. cerevisiae; conditions: duplicate wells, 30° C., final timepoint 84 hrs
Method: In yet another example, cells expressing a heterologous E3 ligase, in this case COI1b, were assayed for survival to discover bridging agents that can bridge COI1b to the bait and lead to degradation, thereby enabling cell growth (as shown in FIG. 11A). S. cerevisiae cells were modified to minimize drug efflux by deletion of drug efflux pumps and transcription factors encoding for their expression as previously described (Chinen, 2011). The target used was a plant protein (AXR) that is ubiquitinated and degraded in response to Jasmonate-isoleucine fused to a TetR DBD and an AD. Cells containing the E3 ligases and the death agents were mated to cells containing the target. The mated cells were then aliquoted into a 96 well plate at a starting OD600=0.05. Various compounds were tested in duplicate wells at a concentration gradient down from 100 uM. […] Plates were incubated at 30° C. with shaking and continuously monitored for growth using OD600 in a Cytation 1 instrument.

[3] = system: aggressive adherent cancer cell lines (e.g. HeLa, A431, T47D, MCF7, MDA-MB-231); conditions: several aggressive adherent cancer cell lines (e.g. HeLa, A431, T47D, MCF7, MDA-MB-231); cited from earlier work

Compound: O=C(O)Cc1ccccc1 [PAA]
- cell growth (OD600): bridging TIR1 to the bait, leading to degradation [1]: functional bridging agents

Compound: CC[C@H]1C=C(C(=O)N[C@@]2(C(=O)O)C[C@@H]2CC)[C@H]2CCC(=O)[C@H]2C1 [coronatine]
- cell growth (OD600): bridging COI1b to the bait, leading to degradation ([2]; 50 uM (wells G8/9)): exhibited cell growth
- cell growth (OD600): bridging COI1b to the bait, leading to degradation ([2]; 75 uM (wells F8/9)): exhibited cell growth
- cell growth (OD600): bridging COI1b to the bait, leading to degradation ([2]; 100 uM (wells E8/9)): exhibited cell growth

Compound: Gymnopeptide A [GymA]
- IC50 values [3]: low nanomolar range

Compound: Gymnopeptide B [GymB]
- IC50 values [3]: low nanomolar range
